Results reported in patent US7547759B2, “Induction of tumor immunity by variants of folate binding protein” (Board of Regents, The University of Texas System, priority 2001, dated 2009).
Entries after “also recorded” stand apart in the source; their conditions may differ.

How the values were obtained:
[1] = tested on: HLA-A2; assay: HLA-A2 stabilization by FBP epitope E39 variants; format: binding, human; details: FIG. 1; compared with wild-type E39
Source text: (§1) The HLA-A2 stabilizing ability of the variant peptides has also been determined (FIG. 1). […] In contrast, substitutions at position 1 increase the binding affinity of the peptide. The results in FIG. 2 show the cytolytic activity of J65-induced CTL compared with E39-induced CTL.

[2] = tested on: peripheral blood mononuclear cells (PBMC); assay: Expansion of PBMC stimulated with FBP peptide E39 and its variants (live cell counts); format: cell-based, human
Source text: FIG. 4 illustrates expansion of PBMCs stimulated with FBP peptide E39 and its variants.
(§2) To identify which of E39 variants induced higher cell expansion, PBMC from the same donor were stimulated three times with the corresponding peptide, and the resulting live cells were counted a week after each stimulation. […] Similar results were obtained with J65 in another donor (FIG. 5).

[3] = tested on: peripheral blood mononuclear cells (PBMC); assay: IFN-γ induction in PBMC with multiple peptide stimulations; format: cell-based, human
Source text: FIG. 2A illustrates IFN-γ induction in peripheral blood mononuclear cells (PBMC) with multiple stimulations with J65 or E39.
as §1
(§3) To address the effects of FBP variants on induction of CTL activity, PBMC cultures from the healthy donor stimulated three times with J65 were split in three and restimulated with either E39 or J65 or J77. A control culture was made of the same PBMC stimulated three times with E39 and restimulated with E39 for the fourth time. […] It was recently reported that memory CTL reacting with the tumor Ag such as FBP are present in the blood of healthy individuals (Lee et al., 2000). These cells can be easily activated by stimulation with the corresponding peptide presented on dendritic cells (Kim et al., 1999). To evaluate the stimulating ability of the analogs J65 and J77, PBMC from a responding donor were stimulated with E39, J65 and J77.

[4] = tested on: peripheral blood mononuclear cells (PBMC); assay: CTL activity in PBMC with multiple peptide stimulations; format: cell-based, human; details: for CTL activity: recognition of E39: healthy donor PBMC stimulated three times with the peptide, then restimulated with E39
Source text: FIG. 2B illustrates CTL activity in PBMC with multiple stimulations with J65 or E39.
CTL activity can be assessed by methods described herein or as would be known to one of skill in the art. For example, CTLs may be assessed in freshly isolated peripheral blood mononuclear cells (PBMC), in a phytohaemaglutinin-stimulated IL-2 expanded cell line established from PBMC (Bernard et at., 1998) or by T cells isolated from a previously immunized subject and restimulated for 6 days with DC infected with an adenovirus vector containing antigen using standard 4 h 51^Cr release microtoxicity assays. In another fluorometric assay developed for detecting cell-mediated cytotoxicity, the fluorophore used is the non-toxic molecule ALAMARBLUE (dye) (Nociari et at., 1998). The ALAMARBLUE (dye) is fluorescently quenched (i.e., low quantum yield) until mitochondrial reduction occurs, which then results in a dramatic increase in the alamarBlue fluorescence intensity (i.e., increase in the quantum yield).
as §3

[5] = tested on: peripheral blood mononuclear cells (PBMC); assay: Specific IL-2 induction in PBMC by priming with E39 variants; format: cell-based, human; details: PBMC of responding donor; compared with wild-type peptide E39; FIG. 3
Source text: FIG. 3 illustrates specific interleukin 2 (IL-2) induction in PBMCs by priming with E39 variants.
as §2

[6] = target: HLA-A2 (human); assay: HLA-A2 stabilization assay (FIG. 1)
[7] = same donor, stimulated three times with peptide, live cells counted a week after each stimulation, FIG. 4

| Molecule | HLA-A2 stabilizing ability [1] | cell expansion of PBMC cultures ([2]; another donor, FIG. 5) | cell expansion of PBMC cultures [2, 7] | IFN-γ induction ([3]; 3×J65 stimulated PBMC cultures restimulated with the peptide, FIG. 2) | IFN-γ secretion elicited by wild-type epitope E39 in peptide-primed CTL ([3]; CTL primed with the peptide, then stimulated with E39) | CTL activity: recognition of E39 [4] | IL-2 induction [5] | CTL activity ([4]; healthy donor PBMC stimulated three times with J65 (3×J65), restimulated with the peptide) | HLA-A2 stabilizing ability relative to E39 [6] |
| --- | --- | --- | --- | --- | --- | --- | --- | --- | --- |
| EIWTFSTKV [J65, E39 variant H5→F, Y7→T] | almost half of the stabilizing ability of E39 | expanded faster | increased faster in numbers | weaker inducer of IFN-γ | higher | significantly higher recognition of E39; also recorded: higher CTL activity | lower levels of IL-2 | – | – |
| EIWTFSYKV [J78, E39 variant H5→F] | – | expanded, but at a slower rate | proliferated slower than control cultures | – | – | – | – | – | – |
| EIWTHSTKV [J77, E39 variant Y7→T] | – | expanded, but at a slower rate | proliferated slower than control cultures | – | – | – | lower levels of IL-2 | significantly lower CTL activity | – |
| EIWTHSYKV [E39, reference compound] | – | died after the third stimulation | initially expanded faster than other cultures | – | – | moderate weak recognition of E39 | – | – | – |
| EIWTFSTKV [J65 (variant of FBP epitope E39, H5→F, Y7→T)] | – | – | – | – | – | – | – | – | 0.5 fold of E39 |
